This passage reports IC50 results from patent US11180494B2, “Substituted amino acids as integrin inhibitors” (Pliant Therapeutics, Inc., priority 2018, dated 2021).

Where only a bound is given, the exact number is not on record here.

For orientation: IC50 means the concentration that inhibits the measured activity by half.

Chain of human integrin αvβ6 (P06756 31-992): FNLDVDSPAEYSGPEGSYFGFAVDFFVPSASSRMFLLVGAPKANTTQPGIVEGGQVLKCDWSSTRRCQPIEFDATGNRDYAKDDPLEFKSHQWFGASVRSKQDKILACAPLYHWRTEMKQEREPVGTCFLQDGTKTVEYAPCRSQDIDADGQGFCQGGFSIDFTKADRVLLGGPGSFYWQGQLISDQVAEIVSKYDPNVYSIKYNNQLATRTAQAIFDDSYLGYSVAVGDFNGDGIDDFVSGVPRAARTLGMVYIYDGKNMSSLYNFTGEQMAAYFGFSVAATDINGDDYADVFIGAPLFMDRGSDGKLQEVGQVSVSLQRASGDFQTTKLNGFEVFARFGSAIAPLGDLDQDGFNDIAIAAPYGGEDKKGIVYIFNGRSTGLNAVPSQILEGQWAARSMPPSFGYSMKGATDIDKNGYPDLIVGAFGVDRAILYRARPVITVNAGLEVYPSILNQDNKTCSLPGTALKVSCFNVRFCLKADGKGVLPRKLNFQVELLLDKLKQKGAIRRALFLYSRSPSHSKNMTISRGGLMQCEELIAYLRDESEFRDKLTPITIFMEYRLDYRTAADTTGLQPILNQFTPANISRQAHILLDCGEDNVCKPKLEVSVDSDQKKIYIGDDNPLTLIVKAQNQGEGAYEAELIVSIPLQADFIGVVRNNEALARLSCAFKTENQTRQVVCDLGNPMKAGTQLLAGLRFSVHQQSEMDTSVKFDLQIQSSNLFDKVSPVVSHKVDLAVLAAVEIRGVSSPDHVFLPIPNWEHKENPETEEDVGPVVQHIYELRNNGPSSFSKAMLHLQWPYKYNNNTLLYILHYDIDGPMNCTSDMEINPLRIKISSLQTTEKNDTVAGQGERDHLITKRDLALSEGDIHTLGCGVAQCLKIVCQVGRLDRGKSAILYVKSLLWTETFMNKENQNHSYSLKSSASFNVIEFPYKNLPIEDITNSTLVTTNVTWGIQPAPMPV
Chain of human integrin αvβ6 (P18564 22-707): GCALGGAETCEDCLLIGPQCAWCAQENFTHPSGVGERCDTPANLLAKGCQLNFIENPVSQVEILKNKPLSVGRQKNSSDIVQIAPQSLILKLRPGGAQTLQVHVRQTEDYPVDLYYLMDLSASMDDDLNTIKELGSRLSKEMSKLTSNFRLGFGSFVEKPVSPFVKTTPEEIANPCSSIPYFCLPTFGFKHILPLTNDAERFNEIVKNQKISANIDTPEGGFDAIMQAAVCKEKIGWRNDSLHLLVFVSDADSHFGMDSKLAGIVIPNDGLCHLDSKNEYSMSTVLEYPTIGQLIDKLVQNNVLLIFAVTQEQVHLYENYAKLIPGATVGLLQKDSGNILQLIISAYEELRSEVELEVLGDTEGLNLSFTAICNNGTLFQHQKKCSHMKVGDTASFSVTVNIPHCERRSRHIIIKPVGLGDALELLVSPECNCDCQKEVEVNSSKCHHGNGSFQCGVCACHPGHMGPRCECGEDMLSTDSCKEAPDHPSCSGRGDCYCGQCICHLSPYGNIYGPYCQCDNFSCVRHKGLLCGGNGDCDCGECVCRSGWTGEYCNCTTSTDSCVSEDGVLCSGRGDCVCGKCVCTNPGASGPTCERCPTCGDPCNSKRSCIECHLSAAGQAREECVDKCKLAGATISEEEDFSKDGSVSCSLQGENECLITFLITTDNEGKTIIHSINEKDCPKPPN

This test deals with human integrin αvβ6 (Homo sapiens (Human), UniProt P06756+P18564). Description: Proximity-based integrin receptor binding assay (ALPHASCREEN) for inhibitor potency. The settings on record: inhibition of binding of TGF-b1 LAP to human integrin αvβ6; values given in ranges. The gist of the method:
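AlphaScreen: integrin, compound, TGF-b1 LAP, biotinylated anti-LAP antibody and acceptor beads incubated 2 hours, then streptavidin donor beads 30 minutes, at room temperature in 50 mM Tris-HCl pH 7.5, 0.1% BSA, 1 mM CaCl2 and MgCl2. Excitation 680 nm, emission 520-620 nm; IC50 by four-parameter logistic fit.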
(In general: Bead proximity is the source of the signal in Alpha formats.)
For the molecule `C[C@@H](OC(=O)N[C@@H](CCO[C@H]1C[C@H](CCc2ccc3c(n2)NCCC3)C1)C(=O)O)c1ccccc1` [Compound 140, N—(((R)-1-phenylethoxy)carbonyl)-O-(trans-3-(2-(5,6,7,8-tetrahydro-1,8-naphthyridin-2-yl)ethyl)cyclobutyl)homoserine], the IC50 was in the range of 250 to 1000 nM.

For the molecule `C[C@H](OC(=O)N[C@@H](CCO[C@H]1C[C@H](CCc2ccc3c(n2)NCCC3)C1)C(=O)O)c1ccccc1` [Compound 141, N—(((S)-1-phenylethoxy)carbonyl)-O-(trans-3-(2-(5,6,7,8-tetrahydro-1,8-naphthyridin-2-yl)ethyl)cyclobutyl)homoserine], the IC50 was under 50 nM.

As for `O=C(NC(CCO[C@H]1C[C@H](CCc2ccc3c(n2)NCCC3)C1)C(=O)O)OC1CCC1c1ccccc1` (stereo partly drawn) [Compound 142, N-((2-phenylcyclobutoxy)carbonyl)-O-(trans-3-(2-(5,6,7,8-tetrahydro-1,8-naphthyridin-2-yl)ethyl)cyclobutyl)homoserine], the half-inhibitory concentration (IC50) lay within 50 to 250 nM.

Turning to `O=C(N[C@@H](CCO[C@H]1C[C@H](CCc2ccc3c(n2)NCCC3)C1)C(=O)O)O[C@H]1C[C@@H](c2ccccc2)C1` [Compound 143, N-((cis-3-phenylcyclobutoxy)carbonyl)-O-(trans-3-(2-(5,6,7,8-tetrahydro-1,8-naphthyridin-2-yl)ethyl)cyclobutyl)homoserine], the IC50 was 250 to 1000 nM.

For `O=C(N[C@@H](CCO[C@H]1C[C@H](CCc2ccc3c(n2)NCCC3)C1)C(=O)O)O[C@@H]1CCCC[C@H]1c1ccccc1` [Compound 144, N-((((1R,2S)-2-phenylcyclohexyl)oxy)carbonyl)-O-(trans-3-(2-(5,6,7,8-tetrahydro-1,8-naphthyridin-2-yl)ethyl)cyclobutyl)homoserine], the concentration for half-maximal inhibition (IC50) is 250 to 1000 nM.

As to `O=C(N[C@@H](CCO[C@H]1C[C@H](CCc2ccc3c(n2)NCCC3)C1)C(=O)O)O[C@H]1CCCC[C@@H]1c1ccccc1` [Compound 146, N-((((1S,2R)-2-phenylcyclohexyl)oxy)carbonyl)-O-(trans-3-(2-(5,6,7,8-tetrahydro-1,8-naphthyridin-2-yl)ethyl)cyclobutyl)homoserine], the IC50 is 50 to 250 nM.

On to `CC(C)(C)OC(=O)N1CC(OC(=O)N[C@@H](CCO[C@H]2C[C@H](CCc3ccc4c(n3)NCCC4)C2)C(=O)O)C1` [Compound 147, N-(((1-(tert-butoxycarbonyl)azetidin-3-yl)oxy)carbonyl)-O-(trans-3-(2-(5,6,7,8-tetrahydro-1,8-naphthyridin-2-yl)ethyl)cyclobutyl)homoserine], for which the 50% inhibitory concentration (IC50) is under 50 nM.

`O=C(N[C@@H](CCO[C@H]1C[C@H](CCc2ccc3c(n2)NCCC3)C1)C(=O)O)O[C@H]1CC[C@H](c2ccccc2)CC1` [Compound 148, N-(((trans-4-phenylcyclohexyl)oxy)carbonyl)-O-(trans-3-(2-(5,6,7,8-tetrahydro-1,8-naphthyridin-2-yl)ethyl)cyclobutyl)homoserine]: the IC50 lay within 250 to 1000 nM.

Regarding `O=C(N[C@@H](CCO[C@H]1C[C@H](CCc2ccc3c(n2)NCCC3)C1)C(=O)O)O[C@H]1CC[C@@H](c2ccccc2)CC1` [Compound 149, N-(((cis-4-phenylcyclohexyl)oxy)carbonyl)-O-(trans-3-(2-(5,6,7,8-tetrahydro-1,8-naphthyridin-2-yl)ethyl)cyclobutyl)homoserine], the IC50 fell in the range of 50 to 250 nM.

In the case of `CC(=O)N1CC(OC(=O)N[C@@H](CCO[C@H]2C[C@H](CCc3ccc4c(n3)NCCC4)C2)C(=O)O)C1` [Compound 150, N-(((1-acetylazetidin-3-yl)oxy)carbonyl)-O-(trans-3-(2-(5,6,7,8-tetrahydro-1,8-naphthyridin-2-yl)ethyl)cyclobutyl)homoserine], the IC50 was 250 to 1000 nM.

Take `CC(=O)NC[C@H](C)OC(=O)N[C@@H](CCO[C@H]1C[C@H](CCc2ccc3c(n2)NCCC3)C1)C(=O)O` [Compound 151, N—((((S)-1-acetamidopropan-2-yl)oxy)carbonyl)-O-(trans-3-(2-(5,6,7,8-tetrahydro-1,8-naphthyridin-2-yl)ethyl)cyclobutyl)homoserine]: the half-maximal inhibitory concentration (IC50) was under 50 nM.

In the case of `C[C@@H](CNC(=O)OC(C)(C)C)OC(=O)N[C@@H](CCO[C@H]1C[C@H](CCc2ccc3c(n2)NCCC3)C1)C(=O)O` [Compound 152, N—((((S)-1-((tert-butoxycarbonyl)amino)propan-2-yl)oxy)carbonyl)-O-(trans-3-(2-(5,6,7,8-tetrahydro-1,8-naphthyridin-2-yl)ethyl)cyclobutyl)homoserine], the IC50 was under 50 nM.

On to `C[C@H](CNC(=O)OC(C)(C)C)OC(=O)N[C@@H](CCO[C@H]1C[C@H](CCc2ccc3c(n2)NCCC3)C1)C(=O)O` [Compound 153, N—((((R)-1-((tert-butoxycarbonyl)amino)propan-2-yl)oxy)carbonyl)-O-(trans-3-(2-(5,6,7,8-tetrahydro-1,8-naphthyridin-2-yl)ethyl)cyclobutyl)homoserine], for which the half-maximal inhibitory concentration (IC50) is under 50 nM.

Consider `CC(=O)NC[C@@H](C)OC(=O)N[C@@H](CCO[C@H]1C[C@H](CCc2ccc3c(n2)NCCC3)C1)C(=O)O` [Compound 154, N—((((R)-1-acetamidopropan-2-yl)oxy)carbonyl)-O-(trans-3-(2-(5,6,7,8-tetrahydro-1,8-naphthyridin-2-yl)ethyl)cyclobutyl)homoserine], for which the IC50 fell in the range of 250 to 1000 nM.

With `CC(C)(C)OC(=O)N1CC(OC(=O)N[C@@H](CCO[C@H]2C[C@H](CCc3ccc4c(n3)NCCC4)C2)C(=O)O)(c2cccc(Cl)c2)C1` [Compound 157, N-(((1-(tert-butoxycarbonyl)-3-(3-chlorophenyl)azetidin-3-yl)oxy)carbonyl)-O-(trans-3-(2-(5,6,7,8-tetrahydro-1,8-naphthyridin-2-yl)ethyl)cyclobutyl)homoserine], the IC50 is under 50 nM.

Consider `CC(C)c1ccc(C2(OC(=O)N[C@@H](CCO[C@H]3C[C@H](CCc4ccc5c(n4)NCCC5)C3)C(=O)O)CN(C(=O)OC(C)(C)C)C2)cc1` [Compound 158, N-(((1-(tert-butoxycarbonyl)-3-(4-isopropylphenyl)azetidin-3-yl)oxy)carbonyl)-O-(trans-3-(2-(5,6,7,8-tetrahydro-1,8-naphthyridin-2-yl)ethyl)cyclobutyl)homoserine], for which the IC50 is under 50 nM.

On to `CC(C)(C)OC(=O)N1CC(C#Cc2ccccc2)(OC(=O)N[C@@H](CCO[C@H]2C[C@H](CCc3ccc4c(n3)NCCC4)C2)C(=O)O)C1` [Compound 159, N-(((1-(tert-butoxycarbonyl)-3-(phenylethynyl)azetidin-3-yl)oxy)carbonyl)-O-(trans-3-(2-(5,6,7,8-tetrahydro-1,8-naphthyridin-2-yl)ethyl)cyclobutyl)homoserine], for which the IC50 was under 50 nM.

Consider `CC(C)(C)OC(=O)N1CCC(C(=O)N[C@@H](CCO[C@H]2C[C@H](CCc3ccc4c(n3)NCCC4)C2)C(=O)O)CC1` [Compound 160, N-(1-(tert-butoxycarbonyl)piperidine-4-carbonyl)-O-(trans-3-(2-(5,6,7,8-tetrahydro-1,8-naphthyridin-2-yl)ethyl)cyclobutyl)homoserine], for which the IC50 lay in the range of 50 to 250 nM.

As for `O=C(NC(CCO[C@H]1C[C@H](CCc2ccc3c(n2)NCCC3)C1)C(=O)O)C1CCCC(F)(F)C1` (stereo partly drawn) [Compound 161, N-(3,3-difluorocyclohexane-1-carbonyl)-O-(trans-3-(2-(5,6,7,8-tetrahydro-1,8-naphthyridin-2-yl)ethyl)cyclobutyl)homoserine], the concentration for half-maximal inhibition (IC50) is under 50 nM.

As for `CC1(C(=O)N[C@@H](CCO[C@H]2C[C@H](CCc3ccc4c(n3)NCCC4)C2)C(=O)O)CCOCC1` [Compound 164, N-(4-methyltetrahydro-2H-pyran-4-carbonyl)-O-(trans-3-(2-(5,6,7,8-tetrahydro-1,8-naphthyridin-2-yl)ethyl)cyclobutyl)homoserine], the IC50 is under 50 nM.

As to `CC(C)(C(=O)N[C@@H](CCO[C@H]1C[C@H](CCc2ccc3c(n2)NCCC3)C1)C(=O)O)C1CCCCC1` [Compound 165, N-(2-cyclohexyl-2-methylpropanoyl)-O-(trans-3-(2-(5,6,7,8-tetrahydro-1,8-naphthyridin-2-yl)ethyl)cyclobutyl)homoserine], the half-maximal inhibitory concentration (IC50) was under 50 nM.

In the case of `O=C(N[C@@H](CCO[C@H]1C[C@H](CCc2ccc3c(n2)NCCC3)C1)C(=O)O)c1ccccc1-c1ccccn1` [Compound 166, N-(2-(pyridin-2-yl)benzoyl)-O-(trans-3-(2-(5,6,7,8-tetrahydro-1,8-naphthyridin-2-yl)ethyl)cyclobutyl)homoserine], the IC50 was 50 to 250 nM.

On to `O=C(N[C@@H](CCO[C@H]1C[C@H](CCc2ccc3c(n2)NCCC3)C1)C(=O)O)c1ccccc1N1CCOCC1` [Compound 168, N-(2-morpholinobenzoyl)-O-(trans-3-(2-(5,6,7,8-tetrahydro-1,8-naphthyridin-2-yl)ethyl)cyclobutyl)homoserine], for which the IC50 was 50 to 250 nM.

In the case of `CCC(CC)(C(=O)N[C@@H](CCO[C@H]1C[C@H](CCc2ccc3c(n2)NCCC3)C1)C(=O)O)c1ccccc1` [Compound 169, N-(2-ethyl-2-phenylbutanoyl)-O-(trans-3-(2-(5,6,7,8-tetrahydro-1,8-naphthyridin-2-yl)ethyl)cyclobutyl)homoserine], the IC50 was 50 to 250 nM.

Regarding `N#CC1(C(=O)N[C@@H](CCO[C@H]2C[C@H](CCc3ccc4c(n3)NCCC4)C2)C(=O)O)CCOCC1` [Compound 171, N-(4-cyanotetrahydro-2H-pyran-4-carbonyl)-O-(trans-3-(2-(5,6,7,8-tetrahydro-1,8-naphthyridin-2-yl)ethyl)cyclobutyl)homoserine], the IC50 was under 50 nM.

Take `CC(C)(C)OC(=O)N1CC(C)(C(=O)N[C@@H](CCO[C@H]2C[C@H](CCc3ccc4c(n3)NCCC4)C2)C(=O)O)C1` [Compound 172, N-(1-(tert-butoxycarbonyl)-3-methylazetidine-3-carbonyl)-O-(trans-3-(2-(5,6,7,8-tetrahydro-1,8-naphthyridin-2-yl)ethyl)cyclobutyl)homoserine]: the 50% inhibitory concentration (IC50) is under 50 nM.
